Literature values in patent publication US20250127693A1, “Materials for Desensitization and Targeted Drug Delivery to Teeth and Gums” (South Dakota Board of Regents, priority 2023, published 2025).

Columns and labels:
mammalian cells = conditions: prolonged exposures

C=CCc1ccc(O)c(OC)c1 [eugenol]
concentration at which eugenol inhibits proliferation of cancerous cells (cancerous cells): 82 µg/mL | concentration at which toxicity for mammalian cells starts (mammalian cells): 164 µg/mL
